In patent US6514997B2, “Antipicornaviral compounds and compositions, their pharmaceutical uses, and materials for their synthesis” (Agouron Pharmaceuticals, Inc., priority 1999, dated 2003):
Like-named read-outs stand apart in the source and are kept apart here.

Legend:
[1] = tested on: Coxsackievirus type A-21 (CAV-21); experiment: Anticoxsackieviral cell culture assay (XTT, EC50), CAV-21; type: cell-based, coxsackievirus A-21 in H1-HeLa cells
Protocol: (§1) Anticoxsackieviral Cell Culture Assay:
(§2) Coxsackievirus types A-21 (CAV-21) and B3 (CVB3) were purchased from American Type Culture Collection (ATCC, Rockville, Md.). Virus stocks were propagated and antiviral assays were performed in H1-HeLa cells (ATCC). Cells were grown in minimal essential medium with 10% fetal bovine serum (Life Technologies, Gaithersburg, Md.). The ability of the compounds of this invention to protect cells against either CAV-21 or CVB3 infection was measured by the XTT dye reduction method. This method is described in Weislow et al., J. Natl. Cancer Inst. (1989), vol. 81, 577-586. H1-HeLa cells were infected with CAV-21 or CVB3 at a multiplicity of infection (m.o.i.) of 0.025 or 0.075, respectively, or mock-infected with medium only. H1-HeLa cells were plated at 4×10^4 cells per well in a 96-well plate and incubated with appropriate concentrations of the test compound. One day (CVB3) or two days (CAV-21) later, XTT/PMS was added to test plates and the amount of formazan produced was quantified spectrophotometrically at 450/650 nm. […] The therapeutic index (TI) was calculated by dividing the CC50 by the EC50.

[2] = Cytotoxicity (CC50) in mock-infected H1-HeLa cells, XTT dye reduction; type: cell-based, human; details: human; for CC50 at 1 day: CVB3
Summary of the method: (§3)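 H1-HeLa cells mock-infected, read by XTT/PMS formazan at 450/650 nm.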

[3] = tested on: Echovirus type 11 (ECHO 11); experiment: Anti-echoviral cell culture assay (XTT, EC50), ECHO 11; type: cell-based, echovirus 11 in MRC-5 cells; details: Enterovirus B, MRC5
Protocol: (§4) Anti-Echoviral and Anti-Enteroviral Cell Culture Assays
(§5) Echovirus type 11 (ECHO 11) was purchased from ATCC (Rockville, Md.). Virus stocks were propagated and antiviral assays were performed in MRC-5 cells (ATCC). Cells were grown in minimal essential medium with 10% fetal bovine serum (Life Technologies, Gaithersburg, Md.). The ability of the compounds of this invention to protect cells against ECHO 11 infection was measured by the XTT dye reduction method (Weislow et al., J. Natl. Cancer Inst. (1989), vol. 81, 577-586). MRC-5 cells were infected with ECHO 11 at an m.o.i. of 0.003 or 0.004, respectively, or mock-infected with medium only. Infected or uninfected cells were added at 1×10^4 cells per well and incubated with appropriate concentrations of compound. Four days later, XTT/PMS was added to test plates, and the amount of formazan produced was quantified spectrophotometrically at 450/650 nm. […] The therapeutic index (TI) was calculated by dividing the CC50 by the EC50. Activity of the compounds against enterovirus type 70 (EV 70) may be measured by the same assay as described above in this section. Enterovirus type 70 (EV 70) may be obtained from the American Type Culture Collection ATCC (Rockville, Md.).

[4] = tested on: Coxsackievirus type B3 (CVB3); experiment: Anticoxsackieviral cell culture assay (XTT, EC50), CVB3; type: cell-based, coxsackievirus B3 in H1-HeLa cells
Protocol: as §1, §2

[5] = Cytotoxicity (CC50) in uninfected MRC-5 cells, XTT dye reduction; type: cell-based, human; details: human, uninfected (mock-infected) MRC-5 cells; ECHO-11 (EV-11) row
Protocol: as §5

[6] = tested on: HRV-14; experiment: Antirhinoviral H1-HeLa cell culture assay (XTT cell protection, EC50), HRV-14; type: cell-based, human rhinovirus (HRV) serotype-14 in H1-HeLa cells; details: HRV-14, read-out: EC50
Summary of the method: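 H1-HeLa cells were infected with HRV-14 at m.o.i. 0.13, or mock-infected, and incubated with compound for two days. Cell protection was read by XTT/PMS formazan absorbance at 450/650 nm to give EC50. CC50 came from mock-infected cells, and TI = CC50/EC50.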

[7] = tested on: enterovirus type 70 (EV 70); experiment: Anti-enteroviral cell culture assay (XTT, EC50), EV 70; type: cell-based, enterovirus 70 in MRC-5 cells; details: Enterovirus D, MRC5; ENT-70, MRC-5 cells
Protocol: as §4, §5

[8] = tested on: MRC-5 cells; experiment: Cytotoxicity (CC50) in uninfected MRC-5 cells, XTT dye reduction; type: cell-based, human; details: ENT-70 row
Protocol: as §5

[9] = tested on: H1-HeLa cells; experiment: Cytotoxicity (CC50) in mock-infected H1-HeLa cells, XTT dye reduction; type: cell-based, human
Summary of the method: as §3

[10] = H1-HeLa cells, mock-infected, HRV-14
[11] = mock-infected (uninfected) H1-HeLa cells, CAV-21
[12] = mock-infected (uninfected) H1-HeLa cells
[13] = CVB3, H1-HeLa cells, read-out: EC50

| EC50 ([1]; Coxsackievirus, CAV-21, H1-HeLa cells, read-out: EC50) [µM] | Compound | EC50 ([1]; Coxsackievirus, H1-HeLa) [µM] | CC50 at 2 days [2, 10] [µM] | CC50 at 2 days [2, 11] [µM] | CC50 at 1 day [2, 12] [µM] | EC50 [3] [µM] | EC50 ([4]; H1-HeLa) [µM] | CC50 at 4 days [5] [µM] | EC50 ([6]; Rhinovirus B, HRV14, H1-HeLa) [µM] | EC50 ([3]; ECHO-11 (also printed EV-11), MRC-5 cells, read-out: EC50) [µM] | EC50 [7] [µM] | EC50 [4, 13] [µM] | CC50 [8] [µM] | EC50 ([1]; CAV-21, H1-HeLa cells, read-out: EC50) [µM] | CC50 ([9]; CAV-21) [µM] | CC50 ([9]; CVB3) [µM] | CC50 ([9]; HRV-14) [µM] | EC50 [6] [µM] |
| --- | --- | --- | --- | --- | --- | --- | --- | --- | --- | --- | --- | --- | --- | --- | --- | --- | --- | --- |
|  | Cc1cc(CCCOc2c(C)cc(-c3noc(C(F)(F)F)n3)cc2C)on1 [Pleconaril, reference compound] | 0.09 | > 10 | > 10 | > 10 | 0.16 | > 10 | > 10 | 0.01 |  |  |  |  |  |  |  |  |  |
| > 100 | CCOC(=O)c1ccc(OCCC2CCN(c3ccc(C)nn3)CC2)cc1 [Pirodavir, reference compound] |  | > 10 | > 100 | > 100 |  |  | > 10 | 0.03 | 3.7 | 0.06 | > 100 | > 10 |  |  |  |  |  |
|  | Cc1cc(CCCCCOc2c(Cl)cc(C3=NCCO3)cc2Cl)on1 [WIN 54954, reference compound] |  |  |  |  |  |  |  |  |  |  | > 100 |  | > 100 | > 100 | > 100 | > 63 | 2.13 |
